Assay results published in US20220235094A1, “CRYSTALLINE FORMS OF ANTIDEPRESSANT DRUG SAGE-217 AND PREPARATION METHOD THEREFOR” (priority 2019, published 2022).
“Also recorded” adds a separate entry of the source.

Legend:
[1] = DVS test (moisture adsorption isotherm, hygroscopicity); assay type: physicochemical
Experimental: The sample of crystalline form 04 prepared in Example 1 was placed on a microbalance plate in a sealed sample chamber, and then exposed to different relative humidity, the relative humidity ranged from […] to 90%, and changed in 10% increments. At each humidity level, the sample is balanced when dm/dt is less than 0.002% within 10 minutes. The mass of the dried sample and the equilibrium mass at each humidity level were recorded, and the weight change was plotted against relative humidity, which is the moisture adsorption isotherm of the sample.
Regarding the description of hygroscopicity characteristics and the definition of hygroscopic weight gain (Appendix XIX J of Chinese Pharmacopoeia 2010 Edition, Guidelines for Hygroscopicity, with experimental conditions: 25±1° C., 80% relative humidity):
Deliquescent: sufficient water is absorbed to form liquid
Extremely hygroscopic: the increase in mass is not less than 15%
Hygroscopic: the increase in mass is less than 15% but not less than 2%
Slightly hygroscopic: the increase in mass is less than 2% but not less than 0.2%
Practical nonhygroscopic: the increase in mass is less than 0.2%.

[2] = Crystalline form stability under different temperature and humidity conditions; assay type: physicochemical
Experimental: The samples of crystalline form 04 prepared in Example 1 were taken, and placed at 25° C./60% humidity and 40° C./75% humidity for 1 month; placed at 2-8° C. for 9 months: after the placement, the above-mentioned samples were taken out and tested for the crystalline form.

[3] = Thermodynamic solubility test in water; assay type: physicochemical; settings: 25° C., 24 hours; for Area: HPLC
Experimental: Thermodynamic solubility test: the solid powder was added to water to a saturated solution, and then the suspension liquid was stirred under magnetic stirring at 25° C. for 24 hours. After completion, it was filtered with a 0.20 μm filter and analyzed by HPLC. Tests were carried out in parallel, and each group was tested twice to take the average.

[4] = Mechanical pressure stability, XRPD after 2 tons of pressure; assay type: physicochemical; settings: 2 tons of mechanical pressure; for XRPD change after mechanical pressure: 100 mg sample
Experimental: To further evaluate the mechanical stability of the crystalline form 04 of the present application and the crystalline form K reported in WO 2018/039378 A1, a 100 mg sample was subjected to 2 tons of mechanical pressure, and the recovered tablets were gently ground and tested by XRPD.

[5] = Crystalline form stability as exposed powder and in sealed vial; settings: for crystalline form stability in a sealed vial: 25° C./45% RH
[6] = Stability compared between crystalline forms

C[C@@]1(O)CC[C@H]2[C@H](CC[C@@H]3[C@@H]2CC[C@]2(C)[C@@H](C(=O)Cn4cc(C#N)cn4)CC[C@@H]32)C1 [crystalline form 04, 1-(2-((3R,5R,8R,9R,10S,13S,14S,17S)-3-hydroxy-3,13-dimethylhexadecahydro-1H-cyclopenta[a]phenanthren-17-yl)-2-oxoethyl)-1H-pyrazole-4-carbonitrile]
hygroscopicity ([1]; DVS curve): no or almost no hygroscopicity; also recorded: no hygroscopicity | water absorption ([1]; DVS, 25° C., relative humidity changed from 40%/0 to 90%): 0.06% | Crystalline form after storage ([2]; 0-8° C., 9 months): the crystalline form remains | Crystalline form after storage ([2]; 2-8° C., 9 months): form 04 | Crystalline form after storage ([2]; 25° C., 60% relative humidity, 1 month): stored stably for one month without change; also recorded: form 04 | Crystalline form after storage ([2]; 40° C., 75% relative humidity, 1 month): stored stably for one month without change; also recorded: form 04 | Concentration (thermodynamic solubility) ([3]; Average): 0.4375 µg/mL | Concentration (thermodynamic solubility) ([3]; Group 1): 0.4506 µg/mL | Concentration (thermodynamic solubility) ([3]; Group 2): 0.4243 µg/mL | Area ([3]; Average): 12.2 mAu*s | Area ([3]; Group 1): 12.6 mAu*s | Area ([3]; Group 2): 11.8 mAu*s | XRPD change after mechanical pressure [4]: no obvious change | mechanical / physical stability compared with crystalline form K [4]: better than that of the crystalline form K; also recorded: better mechanical stress stability | time stable in the exposed powder state ([5]; time in words): one day | crystalline form stability in a sealed vial [5]: more than seven days

C[C@@]1(O)CC[C@H]2[C@H](CC[C@@H]3[C@@H]2CC[C@]2(C)[C@@H](C(=O)Cn4cc(C#N)cn4)CC[C@@H]32)C1 [crystalline form 06, 1-(2-((3R,5R,8R,9R,10S,13S,14S,17S)-3-hydroxy-3,13-dimethylhexadecahydro-1H-cyclopenta[a]phenanthren-17-yl)-2-oxoethyl)-1H-pyrazole-4-carbonitrile]
time stable in the exposed powder state [5]: 16 h | crystalline form stability in a sealed vial [5]: more than seven days

C[C@@]1(O)CC[C@H]2[C@H](CC[C@@H]3[C@@H]2CC[C@]2(C)[C@@H](C(=O)Cn4cc(C#N)cn4)CC[C@@H]32)C1 [crystalline form 08, 1-(2-((3R,5R,8R,9R,10S,13S,14S,17S)-3-hydroxy-3,13-dimethylhexadecahydro-1H-cyclopenta[a]phenanthren-17-yl)-2-oxoethyl)-1H-pyrazole-4-carbonitrile]
stability compared with other crystalline forms [6]: relatively low stability

C[C@@]1(O)CC[C@H]2[C@H](CC[C@@H]3[C@@H]2CC[C@]2(C)[C@@H](C(=O)Cn4cc(C#N)cn4)CC[C@@H]32)C1 [crystalline form D-1, 1-(2-((3R,5R,8R,9R,10S,13S,14S,17S)-3-hydroxy-3,13-dimethylhexadecahydro-1H-cyclopenta[a]phenanthren-17-yl)-2-oxoethyl)-1H-pyrazole-4-carbonitrile]
Crystalline form after storage ([2]; 0-8° C., 9 months): the crystalline form remains | Crystalline form after storage ([2]; 2-8° C., 9 months): the crystalline form did not change | stability compared with other crystalline forms [6]: better stability than crystalline form D | time stable in the exposed powder state [5]: 18 h | crystalline form stability in a sealed vial [5]: more than seven days

C[C@@]1(O)CC[C@H]2[C@H](CC[C@@H]3[C@@H]2CC[C@]2(C)[C@@H](C(=O)Cn4cc(C#N)cn4)CC[C@@H]32)C1 [crystalline form D-2, 1-(2-((3R,5R,8R,9R,10S,13S,14S,17S)-3-hydroxy-3,13-dimethylhexadecahydro-1H-cyclopenta[a]phenanthren-17-yl)-2-oxoethyl)-1H-pyrazole-4-carbonitrile]
stability compared with other crystalline forms [6]: better stability than crystalline form D | time stable in the exposed powder state [5]: 18 h | crystalline form stability in a sealed vial [5]: more than seven days

C[C@@]1(O)CC[C@H]2[C@H](CC[C@@H]3[C@@H]2CC[C@]2(C)[C@@H](C(=O)Cn4cc(C#N)cn4)CC[C@@H]32)C1 [crystalline form K, 1-(2-((3R,5R,8R,9R,10S,13S,14S,17S)-3-hydroxy-3,13-dimethylhexadecahydro-1H-cyclopenta[a]phenanthren-17-yl)-2-oxoethyl)-1H-pyrazole-4-carbonitrile, reference compound]
Concentration (thermodynamic solubility) ([3]; Average): 0.398 µg/mL | Concentration (thermodynamic solubility) ([3]; Group 1): 0.3927 µg/mL | Concentration (thermodynamic solubility) ([3]; Group 2): 0.4032 µg/mL | Area ([3]; Average): 11.1 mAu*s | Area ([3]; Group 1): 10.9 mAu*s | Area ([3]; Group 2): 11.2 mAu*s | XRPD change after mechanical pressure [4]: a slight decrease in its crystallinity
